We go through nine compounds from patent US11261180B2, “Cyclohexyl acid isoxazole azoles as LPA antagonists” (Bristol-Myers Squibb Company, priority 2017, dated 2022).

The subject of experiment [1] is highly peritoneal metastatic pancreatic cancer cell line. The conditions noted are these: cited from earlier work.
Experiment [2] concerns human foetal lung fibroblasts. To be noted: cited from earlier work.
The test system of experiment [3] is pancreatic cancer cell lines. To be noted: cited from earlier work.
A further experiment concerns UUO mice. The conditions noted are these: compared with LPA1 (-/-) mice; cited from earlier work.
The next experiment concerns CTGF. To be noted: MCT cells, co-treatment with LPA; cited from earlier work.
Experiment [4] deals with T1, LPA1 (Homo sapiens, UniProt Q92633). Put plainly: LPA1 functional antagonist assay (calcium flux in CHO cells overexpressing human LPA1). To be noted: CHO cells overexpressing human LPA1, calcium flux induced by 10 nM LPA; read-out: hLPA1 IC50. Details: expressed in transfected cells; host or cells: Chinese hamster ovary (CHO) cells. It is filed as cell-based. As for the experimental part: The effectiveness of compounds of the present invention as LPA1 inhibitors can be determined in an LPA1 functional antagonist assay as follows:
Chinese hamster ovary cells overexpressing human LPA1 were plated overnight (15,000 cells/well) in poly-D-lysine coated 384-well microplates (Greiner bio-one, Cat #781946) in DMEM/F12 medium (Gibco, Cat #11039). Following overnight culture, cells were loaded with calcium indicator dye (AAT Bioquest Inc, Cat #34601) for 30 minutes at 37° C. The cells were then equilibrated to room temperature for 30 minutes before the assay. Test compounds solubilized in DMSO were transferred to 384 well non-binding surface plates (Corning, Cat #3575) using the Labcyte Echo acoustic dispense and diluted with assay buffer [[…] with calcium/magnesium (Gibco Cat #14025-092), 20 mM HEPES (Gibco Cat #15630-080) and 0.1% fatty acid free BSA (Sigma Cat #A9205)] to a final concentration of 0.5% DMSO. Diluted compounds were added to the cells by FDSS6000 (Hamamatsu) at final concentrations ranging from 0.08 nM to 5 μM. and were then incubated for 20 min at room temperature at which time LPA (Avanti Polar Lipids Cat #857130C) was added at final concentrations of 10 nM to stimulate the cells. The compound IC50 value was defined as the concentration of test compound which inhibited 50% of the calcium flux induced by LPA alone. IC50 values were determined by fitting data to a 4-parameter logistic equation (GraphPad Prism, San Diego Calif.).
(In general: Calcium assays in cells follow changes in intracellular calcium, usually with a dye or a luminescent sensor.)

Experiment [5] deals with T1, LPA1. The arrangement: host or cells: IPF patients (in vivo). To be noted: 26-week clinical trial, IPF patients; cited from earlier work.
In a further experiment the test system is nerve-injured mice. The conditions noted are these: pretreatment; cited from earlier work.

T1 sequence (Q92633 whole entry): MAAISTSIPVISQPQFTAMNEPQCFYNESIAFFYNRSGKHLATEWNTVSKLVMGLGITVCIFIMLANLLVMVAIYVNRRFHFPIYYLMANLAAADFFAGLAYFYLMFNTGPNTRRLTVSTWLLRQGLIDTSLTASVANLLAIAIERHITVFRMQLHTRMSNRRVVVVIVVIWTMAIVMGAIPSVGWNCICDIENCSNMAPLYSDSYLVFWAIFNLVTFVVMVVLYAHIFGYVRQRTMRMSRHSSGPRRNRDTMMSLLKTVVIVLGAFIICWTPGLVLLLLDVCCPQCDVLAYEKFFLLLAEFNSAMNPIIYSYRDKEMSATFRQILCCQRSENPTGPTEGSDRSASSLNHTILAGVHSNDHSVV

In the case of `Cc1noc(-c2ccc(CSCCC(=O)O)cc2)c1NC(=O)OC(C)c1ccccc1Cl` (centres unmarked) [Ki16425], in experiment [1], the “LPA-induced and ascites-induced invasion activity” value is listed as “blocked”. In addition, in experiment [2], the “chemotaxis of human foetal lung fibroblasts induced by BAL from IPF patients” value is reported as “blocked” and the “increased fibroblast chemotactic activity in bronchoalveolar lavage samples of IPF subjects” value is on record as “inhibited”. Also, the “in vitro migration in response to LPA and peritoneal fluid (ascites) from pancreatic cancer patients” value in experiment [3] is recorded as “effectively blocked”. The “renal fibrosis profile in UUO mice” value with UUO mice is on record as “closely resembled the profile of LPA1 (−/−) mice”. Further, the “LPA induction of CTGF expression” value with CTGF is “almost completely suppressed”. `Cc1noc(-c2ccc(O[C@H]3CCC[C@H](C(=O)O)C3)cn2)c1CNc1ncc(-c2ccccc2)s1` [Example 3, (1S,3S)-3-((6-(3-methyl-4-(((5-phenyl-thiazol-2-yl)amino)methyl)isoxazol-5-yl)pyridin-3-yl)oxy) cyclohexane-1-carboxylic acid]: the IC50 at LPA1 [4] stood at 712 nM. For `Cc1noc(-c2ccc(O[C@H]3CCC[C@H](C(=O)O)C3)cn2)c1CNc1nc(-c2ccccc2)ns1` [Example 4, (1S,3S)-3-((6-(3-methyl-4-(((3-phenyl-1,2,4-thiadiazol-5-yl)amino)methyl)isoxazol-5-yl)pyridin-3-yl)oxy) cyclohexane-1-carboxylic acid], the IC50 at LPA1 [4] was 153 nM.

As for `Cc1nc(NCc2c(C)noc2-c2ccc(O[C@H]3CCC[C@H](C(=O)O)C3)cn2)sc1-c1ccccc1` [Example 5], the IC50 on LPA1 [4] was 41 nM. Regarding `Cc1noc(-c2ccc(-c3ccc(C4(C(=O)O)CC4)cc3)cc2)c1NC(=O)O[C@H](C)c1ccccc1` [BMS-986020], the “rate of FVC (forced vital capacity) decline” value at LPA1 [5] is recorded as “significantly reduce the rate of FVC (forced vital capacity) decline”. For the compound `Cc1noc(-c2ccc(O[C@H]3CCC[C@H](C(=O)O)C3)cn2)c1CNc1ncc(C(F)(F)F)s1` [Example 6, (1S,3S)-3-((6-(3-methyl-4-(((5-(trifluoromethyl)thiazol-2-yl)amino)methyl)isoxazol-5-yl)pyridin-3-yl)oxy)cyclohexane-1-carboxylic acid], on LPA1 [4], the IC50 turned out to be 486 nM. For the compound `Cc1nc(-c2onc(C)c2CNc2ncn(-c3ccccc3)n2)ccc1O[C@H]1CCC[C@H](C(=O)O)C1` [Example 7], the IC50 on LPA1 [4] worked out at 29 nM.

On to `C[C@@H](N)[C@H]1CC[C@H](C(=O)Nc2ccncc2)CC1` [Example Y-27632], for which the allodynia and hyperalgesia entry with nerve-injured mice is “completely abolished”. As to `CCCc1nnc(NCc2c(C)noc2-c2ccc(O[C@H]3CCC[C@H](C(=O)O)C3)cn2)s1` [Example 1, (1S,3S)-3-((6-(3-methyl-4-(((5-propyl-1,3,4-thiadiazol-2-yl)amino)methyl)isoxazol-5-yl)pyridin-3-yl)oxy)cyclohexane-1-carboxylic Acid], the IC50 at LPA1 [4] came out at 2470 nM.

In general, IC50 refers to the concentration that gives 50% inhibition.
